Source: patent EP1310247A1 (priority 1997, dated 1999)

Columns and labels:
Male Swiss-Webster mice [1] = assay: Locomotor activity: stimulant and depressant effects (horizontal distance); assay type: in vivo
Male Swiss-Webster mice [2] = assay: H1 antihistamine (triprolidine) interaction study, locomotor activity; assay type: in vivo; conditions: pretreatment with 0.01, 0.1, or 1.0 mg/kg triprolidine 20 minutes before
Method: H1 antihistamine interaction studies. […] The mice were then immediately placed in the activity-testing apparatus for a 2 hour session. […] Eight mice were tested for each triprolidine/sympathomimetic combination.
The dose-effect data were considered in 1-way analysis of variance, and planned individual comparisons were conducted between each dose and the saline control group.

dogs = assay: Dosage required to raise mean arterial pressure (MAP) by 10%; assay type: in vivo; conditions: experimentally determined
Method: Nasal airway pressure was measured using a Validyne pressure transducer (Validyne Engineering, Northridge, CA) with a 2.25 cm H2O range membrane connected to a multipen recorder (Grass Instruments, Quincy, MA). Air was passed through an in-line direct measure flow meter (Gilmont Instruments, Barrington, IL) connected to the nasal opening cannula. Pressure was measured in the line with a constant flow rate (150 ml/min) of air. Drugs were directly injected into the jugular vein using a 30 gauge needle. All injections were of a constant 0.1 ml volume. In the congestion challenged groups congestion was achieved by an intranasal administration of histamine (50 mM, 0.02 ml/nostril). The histamine was expelled after 2 minutes with a short nasal cannula airflow and subsequent enantiomeric drug doses were directly injected into the jugular vein. The dosage chosen for each drug was the amount needed to increase the mean arterial pressure (MAP) of the animal by 10%; this dosage served as the "100%" dose for the initial nasal airway studies. […] The dosage required for rats was calculated by proportionately adjusting the experimentally determined dog dosage to account for the lesser weight of the rats.

Sprague Dawley rats [3] = assay: Nasal airway pressure / resistance in anesthetized rats, normal and histamine-challenged; assay type: in vivo; conditions: 75% dose
Sprague Dawley rats [4] = assay: Mean arterial blood pressure after 75% dose in rats; conditions: compared with (+)-ephedrine
α2-Receptor = assay type: binding, mongrel dogs

SMILES | interaction with triprolidine pretreatment (horizontal movement) (Male Swiss-Webster mice [2]) | Dosage required to raise MAP by 10%, Dog (dogs) | further results
CC(N)Cc1ccccc1 (single isomer, unassigned; (+)) [(+)-amphetamine] | – | – | Locomotor stimulant effects, time course (Male Swiss-Webster mice [1]; 2-hour session after i.p. injection, result in words): dose- and time-dependent increase in the distance traversed
CN[C@H](C)[C@@H](O)c1ccccc1 [(+)-ephedrine] | no drug interaction is apparent | 200 µg/kg | effect on normal airway decongestion (Sprague Dawley rats [3]): the same efficacious effect on normal airway decongestion
CN[C@@H](C)[C@@H](O)c1ccccc1 [(+)-pseudoephedrine] | increased horizontal movement is observed | 200 µg/kg | –
CN[C@@H](C)[C@H](O)c1ccccc1 [(-)-ephedrine] | increased horizontal movement is observed | 100 µg/kg | effect on normal airway decongestion (Sprague Dawley rats [3]): the same efficacious effect on normal airway decongestion; increase in blood pressure (Sprague Dawley rats [4]): slightly greater (though significant) increase in blood pressure than (+)-ephedrine
CNC[C@H](O)c1cccc(O)c1 [(-)-phenylephrine] | – | 10 µg/kg | –
CNC[C@H](O)c1ccc(O)c(O)c1 [Epinephrine] | – | – | displacement of bound p-iodoclonidine (α2-Receptor): easily displaced all bound p-iodoclonidine
Cc1ccc(/C(=C\CN2CCCC2)c2ccccn2)cc1 [triprolidine] | – | – | effect on horizontal distance (Male Swiss-Webster mice [1]; mouse, in vivo): failed to affect horizontal distance; effect on locomotion (Male Swiss-Webster mice [1]; triprolidine alone, 50 and 100 mg/kg, beginning within 10 minutes, lasting 30 to 40 minutes): Dose-dependent depression of locomotion
